Experimental data published in article PMC4467156, “A new chemical inhibitor of angiogenesis and tumorigenesis that targets the VEGF signaling pathway upstream of Ras” (Oncotarget, 2015).
Structures can show the parent of a compound that is named as a salt.

Legend:
HMEC-GFP cells = assay: Scratch wound closure assay, HMEC-GFP; assay type: cell-based, human; conditions: for IC50: wound closure after 24 h, 10% FCS, tested 3.125 μM to 100 μM; for activity on HMEC-GFP wound closure: structure-activity relationship analysis
Text: In order to adapt the endothelial scratch wounding assay to the constraints of high throughput screening, we decided to use an endothelial cell line rather than primary cultures for the sake of reproducibility. Since angiogenesis is triggered by capillary endothelial cells, we selected the HMEC-1 cell line which consists of human dermal microvascular endothelial cells stably expressing SV40 […] antigen. We infected this cell line with GFP-encoding retroviral particles and selected one clone (thereafter named HMEC-GFP) that presented a high level of fluorescence and a strong proliferation rate (doubling time in the presence of serum: 22 h). We controlled that GFP expression was stable over at least 50 passages and that these cells still expressed endothelial markers such as VE-cadherin and CD31. In a standard assay, HMEC-GFP cells were grown until confluence in 96-well plates in the presence of serum, scratched with the multi-tip dispenser of the HTS automat, gently rinsed twice to eliminate detached cells and cell debris that could liberate inflammatory and potentially angiogenic cytokines, and incubated for 24 h in the presence of serum and the compounds to be tested. Each well was photographed at time 0 h (after wounding) and 24 h under a motorized epifluorescence microscope and the digitized images were analyzed using Image J to determine the percentage of wound closure (Figure 1A, 1B). Under our standard conditions, the closure rate was 72 ± 4% in the positive controls and 27 ± 4.% in the negative controls.
(§1) Confluent cell monolayers were wounded with a plastic pipet tip, washed gently with phosphate buffer saline (PBS) and treated with complete media containing molecules, as indicated. Cells were placed at 37°C into the incubator and photographed at indicated times. Quantitation of closure of the monolayer was performed using the NIH Image J program (http://rsbweb.nih.gov/ij/). Results are expressed as percentage of wound closure at t = 24 h as compared to the initial wound at t = 0 h.

3T3-GFP cells = assay: Scratch wound closure assay, 3T3-GFP; assay type: cell-based; conditions: wound closure after 24 h, 10% FCS, tested 3.125 μM to 100 μM
Text: Using this assay, we screened the academic library of the University of Grenoble, which is composed of 1360 original molecules. Setting the threshold of significant responses at 75% of the maximal inhibition, we identified 80 inhibitory molecules. At this stage, we reasoned that molecules that would affect the cytoskeleton dynamics or the adhesion properties of any cell type would be positive in this assay but would not represent good candidates for further development. We thus decided to perform a secondary counterscreen of the first 80 selected compounds on GFP-expressing 3T3 fibroblasts (3T3-GFP) using the same scratch assay. We then focused our interest on the 5 molecules that inhibited more strongly HMEC-GFP than 3T3-GFP wound healing. […] We synthesized a series of 30 analogs and tested them at various concentrations both on HMEC-GFP and 3T3-GFP cells. […] Dansyl and naphthalimide aromatic groups, found in COB223 and COB227 respectively, appeared very efficient. The presence of the diaminomethyl group on dansyl is critical for the activity of COB223 as shown by the lower efficiency of COB235 (IC50 is 8 times higher than that of COB223). COB223 and COB227 contain a tert-butyloxycarbonyl function (BOC group) as a second hydrophobic group. Replacement of BOC by an amino group decreased the efficiency and the specificity (compare 05-102-L-B09 vs 05-06-L-D03, or COB227 vs COB228).
as §1

LLC/2 tumor = assay: Mouse LLC/2 tumor model; assay type: in vivo; conditions: mouse, in vivo
Experimental: We chose this model because of its rapid growth in syngenic mice and its strong dependence on angiogenesis. LLC/2 cells (10^6 in 50 μL medium) were subcutaneously injected into the right flank of […] mice. Seven days after tumor inoculation, mice were given an intraperitoneal (i.p.) injection of either solvent (1.7% DMSO) or COB223 every other day. Tumor size was measured with calipers, and the volume was calculated according to the formula (L*w^2)/2 where L and […] stand for length and width respectively. All mice were killed 21 days after tumor grafting.
Tumors collected after animal sacrifice were split into two parts and fixed either in 4% paraformaldehyde (v/v) or in formalin fixative for 24 h at 4°C and embedded in paraffin and then cut into 7 μm sections. Sections were stained using specific antibodies and the avidin–biotin immunoperoxidase detection method. Endogenous peroxidase activity was quenched by pretreatment with 3% (v/v) hydrogen peroxide in methanol for 20 min. For endothelial immunohistochemistry detection, CD31 antibody (MEC13.3, BD Pharmingen) was incubated for 2 h at room temperature. The tissue sections were subsequently washed three times with PBS and incubated with biotinylated rabbit anti-rat IgG (1:250 dilution in blocking solution; Sigma-Aldrich, Saint-Quentin Fallavier, France) for 1 h at room temperature. After three PBS washes, the slides were incubated with an avidin: biotin complex (Vectastain ABC kit; Vector Laboratories, Burlingame, CA) for 45 minutes. After a final PBS wash, the immunoreactive proteins were visualized after the addition of 3,3′-diaminobenzidine (Dako, Trappes, France) for 2 min and then counterstained with hematoxylin. Control sections were treated without primary antibody.

| Compound | IC50 (HMEC-GFP cells) | IC50 (3T3-GFP cells) | activity on HMEC-GFP wound closure (HMEC-GFP cells) | IC50 (HMEC-GFP cells; Homo sapiens) | effect on in vivo LLC/2 tumor growth (LLC/2 tumor) |
| --- | --- | --- | --- | --- | --- |
| 1,4-bis[3-(5-(Dimethylamino)naphthalene-1-sulfonamido)propylamino]piperazine [COB222] | > 50 µM | > 50 µM | – | – | – |
| NCCCN [1,3-diaminopropane, reference compound] | > 100 µM | – | inactive | – | – |
| CN(C)c1cccc2c(S(=O)(=O)NCCCO)cccc12 [COB220, 5-(Dimethylamino)-N-[3-hydroxypropyl]naphthalene-1-sulfonamide] | – | > 50 µM | – | 40 µM | – |
| CN(C)CCCNS(=O)(=O)c1cccc2c(N(C)C)cccc12 [COB221, 5-(Dimethylamino)-N-[3-(dimethylamino)propyl]naphthalene-1-sulfonamide] | – | 150 µM | – | 20 µM | – |
| CN(C)c1cccc2c(S(=O)(=O)N3CCN(CCOCCO)CC3)cccc12 [COB224, 2-(2-{4-[5-(Dimethylamino)naphthalene-1-sulfonyl]piperazin-1-yl}ethoxy)ethan-1-ol] | – | > 50 µM | – | > 50 µM | – |
| CN(C)c1cccc2c(S(=O)(=O)NCCOCCO)cccc12 [COB225, 2-{2-[5-(Dimethylamino)naphthalene-1-sulfonamido]ethoxy}ethan-1-ol] | – | > 50 µM | – | > 50 µM | – |
| NCCCN1C(=O)c2cccc3cccc(c23)C1=O [COB226, N-(3-Aminopropyl)-1,8-naphthalimide hydrochloride] | – | > 50 µM | – | > 50 µM | – |
| CC(C)(C)OC(=O)NCCCN1CCN(CCCN2C(=O)c3cccc4cccc(c34)C2=O)CC1 [COB227, N-{3-[4-(3-tert-Butoxycarbonylaminopropyl)piperazin-1-yl]propyl}-1,8-naphthalimide] | – | 250 µM | – | 18 µM | no inhibition |
| NCCCN1CCN(CCCN2C(=O)c3cccc4cccc(c34)C2=O)CC1 [COB228, N-{3-[4-(3-Aminopropyl)piperazin-1-yl]propyl}-1,8-naphthalimide hydrochloride] | – | 40 µM | – | 25 µM | – |
| CC(C)(C)OC(=O)NCCCN1CCN(CCCNS(=O)(=O)c2cccc3ccccc23)CC1 [COB235, tert-Butyl 3-(4-(3-(naphthalene-1-sulfonamido)propyl)piperazin-1-yl) propylcarbamate] | – | > 50 µM | – | 40 µM | – |
| Cc1ccc(S(=O)(=O)NCCCN2CCN(CCCNC(=O)OC(C)(C)C)CC2)cc1 [COB236, tert-Butyl 3-(4-(3-(4-methylphenylsulfonamido)propyl)piperazin-1-yl) propylcarbamate] | – | > 50 µM | – | > 50 µM | – |
| CC(C)(C)OC(=O)NCCCN1CCN(CCCNC(=O)c2ccccc2)CC1 [COB237, tert-Butyl 3-(4-(3-phenylamidopropyl)piperazin-1-yl)propylcarbamate] | – | > 50 µM | – | > 50 µM | – |
| CC(C)(C)OC(=O)NCCCN1CCN(CCCNC(=O)OCc2ccc([N+](=O)[O-])cc2)CC1 [COB238, 4-Nitrobenzyl N-[3-(4-{3-[(tert-butoxycarbonyl)amino]propyl}piperazin-1-yl)propyl] carbamate] | – | > 50 µM | – | 20 µM | – |
| CN(C)c1ccc2c3c(cccc13)C(=O)N(CCCN1CCN(CCCNC(=O)OC(C)(C)C)CC1)C2=O [COB274, N-{3-[4-(3-tert-Butoxycarbonylaminopropyl)piperazin-1-yl]propyl}-4-dimethylamino-1,8-naphthalimide] | – | – | – | > 100 µM | – |
| CN(C)c1ccc2c3c(cccc13)C(=O)N(CCCNCCCNC(=O)OC(C)(C)C)C2=O [COB275, N-[3-((3-tert-Butoxycarbonylaminopropyl)amino)propyl]-4-dimethylamino-1,8-naphthalimide] | – | 50 µM | – | 12.5 µM | – |
| CN(C)c1ccc2c3c(cccc13)C(=O)N(CCCNC(=O)OC(C)(C)C)C2=O [COB276, N-(3-(tert-Butoxycarbonylamino)propyl)-4-dimethylamino-1,8-naphthalimide] | – | – | – | > 100 µM | – |
| NCCCN1C(=O)c2cccc3cc([N+](=O)[O-])cc(c23)C1=O [COB277, N-(3-Aminopropyl)-3-nitro-1,8-naphtalimide hydrochloride] | – | – | – | > 100 µM | – |
| O=C1c2cccc3cc([N+](=O)[O-])cc(c23)C(=O)N1CCCNCCCN1C(=O)c2cccc3cc([N+](=O)[O-])cc(c23)C1=O [COB278, Bis-[(3-nitro-1,8-naphthalimido)propyl]amine] | – | 25 µM | – | 12.5 µM | – |
| CC(C)(C)OC(=O)NCCCN1CCN(CCCN2C(=O)c3cccc4cc([N+](=O)[O-])cc(c34)C2=O)CC1 [COB280, N-{3-[4-(3-tert-Butoxycarbonylaminopropyl)piperazin-1-yl]propyl}-3-nitro-1,8-naphthalimide] | – | > 100 µM | – | 25 µM | – |
| CC(C)(C)OC(=O)NCCCNCCCN1C(=O)c2cccc3cc([N+](=O)[O-])cc(c23)C1=O [COB281, N-[3-((3-tert-Butoxycarbonylaminopropyl)amino)propyl]-3-nitro-1,8-naphthalimide] | – | > 50 µM | – | 25 µM | – |
| CC(C)(C)OC(=O)NCCCN1C(=O)c2cccc3cc([N+](=O)[O-])cc(c23)C1=O [COB282, N-(3-(tert-Butoxycarbonylamino)propyl)-3-nitro-1,8-naphthalimide] | – | – | – | > 100 µM | – |
| CC(C)(C)OC(=O)NCCCN1C(=O)c2cccc3cccc(c23)C1=O [COB283, N-(3-(tert-Butoxycarbonylamino)propyl)-1,8-naphthalimide] | – | – | – | > 100 µM | – |
| CN(C)c1cccc2c(S(=O)(=O)NCCOCCOCCNC(=O)OC(C)(C)C)cccc12 [COB296, tert-Butyl N-(2-[2-{2-(5-(dimethylamino)naphthalene-1-sulfonamido)ethoxy}ethoxy]ethyl) carbamate] | – | – | – | 5 µM | – |
| NCCCCCCNS(=O)(=O)c1cccc2c(Cl)cccc12 [Compound W7, reference compound] | – | 35 µM | – | 35 µM | – |
| NCCN [Ethylene diamine, 1,2-ethylenediamine, reference compound] | > 100 µM | – | inactive | – | – |
| CN(C)c1cccc2c(S(=O)(=O)NCCCCCN)cccc12 [dansylcadaverine, monodansylcadaverine, reference compound] | – | > 50 µM | inactive | > 50 µM | – |
| NCCCCN [putrescine, 1,4-diaminobutane, reference compound] | – | – | inactive | > 100 µM | – |
| NCCCNCCCCNCCCN [spermine, reference compound] | – | – | inactive | – | – |
| N-(5-(Dimethylamino)naphthalene-1-sulfonamido)-1,3-diamino-propane [Compound 05-06-L-D03] | 25 µM | 200 µM | – | – | – |
| N-(5-(Dimethylamino)naphthalene-1-sulfonamido)-N'-(tert-butoxycarbonyl)-1,3-diamino-propane [Compound 05-102-B09] | 18 µM | 150 µM | – | – | – |
